Assays:
[1] = biological target: T1, human orexin 2 receptors (Homo sapiens, UniProt O43614); assay: Radioligand binding assay ([3H]-SB649868 competition), hOx2R; conditions: competition with about 1 nM [3H]-SB649868; CHO or HEK cell membranes expressing human orexin 2 receptor; read-out: binding hOx2R Kd
T1 sequence (O43614 1-444): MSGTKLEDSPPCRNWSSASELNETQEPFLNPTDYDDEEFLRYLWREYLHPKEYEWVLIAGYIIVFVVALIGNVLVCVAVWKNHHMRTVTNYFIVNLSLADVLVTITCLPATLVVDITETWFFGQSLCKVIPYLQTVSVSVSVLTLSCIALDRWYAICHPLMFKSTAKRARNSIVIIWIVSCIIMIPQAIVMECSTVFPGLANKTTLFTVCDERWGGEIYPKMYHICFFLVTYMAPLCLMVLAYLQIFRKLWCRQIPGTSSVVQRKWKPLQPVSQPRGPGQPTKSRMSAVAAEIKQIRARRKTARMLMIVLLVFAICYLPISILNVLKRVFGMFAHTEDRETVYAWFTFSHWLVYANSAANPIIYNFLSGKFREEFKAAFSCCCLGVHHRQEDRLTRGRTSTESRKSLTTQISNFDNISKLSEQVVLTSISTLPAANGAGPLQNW
Procedure, shortened: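 Membranes were incubated 1 h at room temperature in 10 mM HEPES pH 7.5 with 0.5% BSA, 5 mM MgCl2, 1 mM CaCl2 and 0.05% Tween, with about 1 nM [3H]-SB649868 and test compounds in triplicate. Non-specific binding was defined with 10 μM almorexant, and bound radioactivity was counted.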

[2] = biological target: T2, human orexin 1 receptors (Homo sapiens, UniProt O43613); assay: Calcium accumulation in cells (FLIPR), hOx1R
T2 sequence (O43613 1-425): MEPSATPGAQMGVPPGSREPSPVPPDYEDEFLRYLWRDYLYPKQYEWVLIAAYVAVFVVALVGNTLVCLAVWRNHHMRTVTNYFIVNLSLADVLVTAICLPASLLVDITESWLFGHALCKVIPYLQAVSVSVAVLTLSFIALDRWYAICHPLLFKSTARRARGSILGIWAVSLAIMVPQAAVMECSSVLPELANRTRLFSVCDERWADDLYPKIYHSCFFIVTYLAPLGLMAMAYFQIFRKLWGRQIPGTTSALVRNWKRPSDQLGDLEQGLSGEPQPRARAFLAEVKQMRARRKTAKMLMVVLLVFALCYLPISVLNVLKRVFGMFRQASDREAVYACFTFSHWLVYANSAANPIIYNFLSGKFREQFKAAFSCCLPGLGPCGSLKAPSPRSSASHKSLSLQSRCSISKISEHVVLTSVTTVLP
Method: Cells expressing human orexin 1 or human orexin 2 receptors, were seeded at 8,000 cells/well in 384 well black-walled clear bottom, poly-D-lysine coated plates. After 24 h, the medium was removed and cells were washed once with phosphate buffered saline and serum-deprived overnight in assay buffer (130 mM NaCl, 5.4 mM KCl, 1.8 mM CaCl2, 0.8 mM MgSO4, 0.9 mM NaH2PO4, 25 mM glucose, 20 mM HEPES, pH 7.4) containing bovine serum albumin (1% w/v).
On the day of the experiment, the cells seeded in black plates were treated with assay buffer containing the Ca^2+sensitive fluorescent dye Fluo-4-AM (2 μM), and probenecid (0.1 mM). After 1 h plates were washed twice with, and resuspended in, assay buffer containing probenecid (0.1 mM) using a multi plate washer. The plates were placed into a FLIPR II (Fluorometric Imaging Plate Reader, Molecular Devices, Sunnyvale, Calif., USA) and baseline fluorescence (fluorescence light units, FLU) was measured (5 measurements, 2 S each; laser excitation 488 nm at 0.6-1 W, CCD camera exposure 0.4 s) before addition of buffer alone (basal) or containing test compounds (either compound of formula I alone, agonist alone or agonist in the presence of various concentrations of compounds of formula I). Fluorescence measurements were then continued every 1 S for 120 S followed by every 4 S for 240 S.
Compounds of formula I were tested usually in a concentration range from 10^−9 M to 10^−5 M. In the second round, performed one hour later (to allow for equilibration), Orexin A was tested either in the absence (calibration curves, Orexin A agonist controls) or in the presence of compounds of formula I to determine antagonism.
Inhibition data is expressed in Table 2 as Ki [μM], converted by the Cheng and Prusoff correction (Ki=IC50/1+(L/EC50)), where IC50 is the 50% inhibition value determined in concentration response inhibition curves, EC50 is the half maximal activation concentration determined for orexin A in concentration response curves and L is the concentration of orexin A used in inhibition experiments performed in with a submaximal concentration of orexin A in the presence of up to 8 increasing concentrations of compound of formula I. Inhibition data is also expressed in Table 2 as % inhibition value measured at a concentration of 10 μM of selected compounds of formula I.

[3] = biological target: T2, human orexin 1 receptors; assay: Radioligand binding assay ([3H]-SB649868 competition), hOx1R; conditions: competition with about 1 nM [3H]-SB649868; CHO or HEK cell membranes expressing human orexin 1 receptor
Procedure, shortened: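 Membranes from hOx1R-expressing cells incubated 1 h at room temperature with about 1 nM [3H]-SB649868 and test compound, in triplicate. Buffer was 10 mM HEPES pH 7.5, 0.5% BSA, 5 mM MgCl2, 1 mM CaCl2, 0.05% tween; 10 μM almorexant defined non-specific binding. Filtration then counting of bound radioactivity; values reported as Kd.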

[4] = biological target: T1, human orexin 2 receptors; assay: Calcium accumulation in cells (FLIPR), hOx2R; format: cell-based; conditions: cells expressing human orexin 2 receptor; inhibition of orexin A-induced calcium accumulation; Cheng and Prusoff correction

Row | Compound | Kd [1] [nM] | Ki [2] [nM] | Kd [3] [nM] | Ki [4] [nM]
1 | N#Cc1ccnc(N2CCC3(CCCN(Cc4cccc(-c5ncccn5)c4)C3=O)CC2)n1 [Example 33, 2-(1-oxo-2-(3-(pyrimidin-2-yl)benzyl)-2,9-diazaspiro[5.5]undecan-9-yl)pyrimidine-4-carbonitrile] | 220 | 477 | 744 | 37
2 | O=C1CCCC2(CCN(c3cncc(Cl)n3)CC2)N1Cc1cccc2[nH]ccc12 [Example 44, 1-((1H-indol-4-yl)methyl)-9-(6-chloropyrazin-2-yl)-1,9-diazaspiro[5.5]undecan-2-one] | 238 | 1570 | 5740 | 12
3 | N#Cc1cccc(N2CCC3(CCCN(Cc4cccc(-c5ncccn5)c4)C3=O)CC2)n1 [Example 34, 6-(1-oxo-2-(3-(pyrimidin-2-yl)benzyl)-2,9-diazaspiro[5.5]undecan-9-yl)picolinonitrile] | 674 | 554 | 2290 | 73
